Experimental findings from patent publication US11220534B2, “Treatment of neurological diseases” (Lancaster University Business Enterprises Limited, priority 2016, dated 2022) are described below.

Where no end group is shown, it is not given here. [ ]: non-standard residue; d: D form. Aib = CC(C)(N)C(=O)O

Test [1] concerns APP/PS1 transgenic mice. The experiment in a line: Immunohistochemical measurement of synaptic densities (synaptophysin) in the cortex of APP/PS1 transgenic mice. The class given is in vivo. As to conditions: 10 nmol/kg i.p. once daily for 8 weeks, FIG. 2, N=6 per group. From the text: Animal models have been developed to test novel drugs. A standard model for Alzheimer's disease is transgenic mice that express human mutated genes for amyloid production that are known to induce Alzheimer's disease in humans. These APP/PS1 transgenic mice recapitulate some of the symptoms of Alzheimer's disease such as the aggregation of amyloid in the brain, memory loss and the loss of synapses (Radde et al., 2006).
The APP/PS1 mice express human Swedish mutated APP and human mutated presenilin-1 which induce Alzheimer's Disease in humans.
The dose of peptide tested was 10 nmol/kg body weight. The peptides were administered by a once-daily intraperitoneal injection for 8 weeks. Saline injections were administered as a control. Six animals per group were injected with a peptide or a saline control.
Animals (6 per group) were perfused transcardially with 30 ml of ice-cold PBS and 30 ml of ice-cold 4% paraformaldehyde to postfix the brain. The brains were removed and placed in fresh 30% sucrose solution in PBS to cryoprotect tissue and cut at a thickness of 40 μm on a cryostat. Sections were chosen according to stereological rules, with the first section taken at random and every 5th section afterwards. Between 7 and 13 sections were analysed per brain. […]

The test system of test [2] is APP/PS1 mice. The experiment in a line: Y-maze test for working memory in AD mice. The class given is in vivo. The conditions noted are these: FIG. 6, N=8-14 per group. From the text:
Materials and methods in Example 2 are the same as Example 1 except when stated. Reagents used in Example 2 only include antibodies to p-PI3Kp85, PI3Kp85, p-Akt (ser473), Akt, p-GSK3β ([…]), and GSK3β from Abcam, Inc. Cambridge, UK. The antibody to p-tau (AT8) from Thermo Scientific USA. Mouse Anti-β-actin, Anti-Rabbit IgG, Anti-mouse IgG, CY3-Anti-mouse IgG, RIPA Lysate, BCA Protein Assay Kit, DAPI staining solution and Anti-fluorescence decay agent from Boster (Wuhan, China). Spatial working memory was assessed by recording spontaneous alternation behaviour in a Y-maze. The maze was made of three 30 cm long, 7 cm high, 15 cm wide arms and the arms converged in an equilateral triangular central area. Each mouse was placed at the central triangular area and allowed to move freely through the maze during an 8-min session. The total arm entries and arm order was recorded by Smart 3.0 software system. Alternation was defined as successive entries into the three arms, on overlapping triplet sets. The percent alternation was calculated as the ratio of actual to possible alternations (defined as the total number of arm entries minus 2) multiplied by 100.

For test [3], the system named is APP/PS1 mice. As to the kind of experiment: In vivo hippocampal measurements of L-LTP in AD mice. As to conditions: N=6 per group. From the text:
Materials and methods in Example 2 are the same as Example 1 except when stated. Reagents used in Example 2 only include antibodies to p-PI3Kp85, PI3Kp85, p-Akt (ser473), Akt, p-GSK3β ([…]), and GSK3β from Abcam, Inc. Cambridge, UK. The antibody to p-tau (AT8) from Thermo Scientific USA. Mouse Anti-β-actin, Anti-Rabbit IgG, Anti-mouse IgG, CY3-Anti-mouse IgG, RIPA Lysate, BCA Protein Assay Kit, DAPI staining solution and Anti-fluorescence decay agent from Boster (Wuhan, China). Mice were anesthetized with urethane (Sigma, UK, 1.5 g/kg, i.p.) and placed in a stereotaxic apparatus (RWD Life Science, China) for L-LTP recording. Cut off the scalp and expose the skull, small holes were drilled on one side of the skull (2.0 mm posterior to bregma and 1.5 mm lateral to the midline). […] Baseline fEPSPs were elicited by test stimuli at an interval of 30 seconds and 30 minutes fEPSPs were recorded to observe whether the underlying synaptic transmission is affected. […] The change in PPF ratio, calculated by dividing the slope of the second fEPSP by the slope of the first fEPSP, is viewed to be related with the changes in neurotransmitter release from presynaptic terminals. […] The fEPSPs were recorded for 180 minutes after HFS. All events were recorded by a biological signal processing system (Chengdu Instruments Ltd, China). […]

Consider “YXEGTFTSDYSIYLDKQAAXEFVNWLLAGGPSSGAPPPSKRRQRRKKRGY-NH2 (Y[Aib]EGTFTSDYSIYLDKQAA[Aib]EFVNWLLAGGPSSGAPPPSKRRQRRKKRGY-NH2) [DA5, No. 12; X=aminoisobutyric acid]”, for which the “synapse loss / synaptic densities in the cortex” value in test [1] is reported as “protected from synapse loss”. The “spatial working memory (percent alternation, Y-maze)” value in test [2] is listed as “improved spatial working memory”. Moreover, in test [3] (APP/PS1 mice, FIG. 9b), the “levels of L-LTP post neuronal stimuli” value is listed as “maintained high levels of L-LTP post neuronal stimuli”. Moreover, the “depression of L-LTP in the hippocampus” value in test [3] (APP/PS1 transgenic mice, pre-treatment, FIG. 9a) was “able to reverse the depression of L-LTP”.
